{
  "source": "PubChem BioAssay (NCI)",
  "assay_in_all_cases": "growth of human tumour cells (NCI), 48 h",
  "key": {"SF-539 CNS": {"test_system": "SF-539 CNS"}, "HCT-15 colon": {"test_system": "HCT-15 colon"}, "KM12 colon": {"test_system": "KM12 colon"}, "SR leukemia": {"test_system": "SR leukemia"}, "MDA-MB-435": {"test_system": "MDA-MB-435"}, "RPMI-8226 leukemia": {"test_system": "RPMI-8226 leukemia"}, "SW-620 colon": {"test_system": "SW-620 colon"}, "NCI-H23 lung": {"test_system": "NCI-H23 lung"}, "SF-295 CNS": {"test_system": "SF-295 CNS"}, "M14 melanoma": {"test_system": "M14 melanoma"}, "MOLT-4 leukemia": {"test_system": "MOLT-4 leukemia"}, "HT29 colon": {"test_system": "HT29 colon"}, "DU-145 prostate": {"test_system": "DU-145 prostate"}, "LOX IMVI melanoma": {"test_system": "LOX IMVI melanoma"}, "UACC-257 melanoma": {"test_system": "UACC-257 melanoma"}, "HOP-92 NSCLC": {"test_system": "HOP-92 NSCLC"}, "HOP-62 NSCLC": {"test_system": "HOP-62 NSCLC"}, "CCRF-CEM leukemia": {"test_system": "CCRF-CEM leukemia"}, "UO-31 renal": {"test_system": "UO-31 renal"}, "SK-MEL-5 melanoma": {"test_system": "SK-MEL-5 melanoma"}, "SN12C renal": {"test_system": "SN12C renal"}, "BT-549 breast": {"test_system": "BT-549 breast"}, "786-0 renal": {"test_system": "786-0 renal"}, "RXF 393 renal": {"test_system": "RXF 393 renal"}, "A498 renal": {"test_system": "A498 renal"}, "T-47D breast": {"test_system": "T-47D breast"}, "OVCAR-4 ovarian": {"test_system": "OVCAR-4 ovarian"}, "U251 CNS": {"test_system": "U251 CNS"}},
  "note": "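Tested at 5 concentrations; 48 h exposure; 96-well plates; endpoints linearly interpolated, else capped at highest concentration. Abbreviation: GI50, concentration required for 50% inhibition of growth. TGI denotes the concentration required for complete inhibition of growth.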",
  "data": [
    {"smiles": "CCCN(CCC)S(=O)(=O)c1ccc(C(=O)O)cc1.CCCN(CCC)S(=O)(=O)c1ccc(C(=O)O)cc1.[Cl][Pt+2][Cl].[NH2-].[NH2-]", "values": [
      {"measurement": "GI50", "setting": "SF-539 CNS", "value": 289, "unit": "nM"},
      {"measurement": "TGI", "setting": "SF-539 CNS", "value": "> 33200", "unit": "nM"},
      {"measurement": "GI50", "setting": "HCT-15 colon", "value": "> 100000", "unit": "nM"},
      {"measurement": "TGI", "setting": "HCT-15 colon", "value": "> 100000", "unit": "nM"},
      {"measurement": "GI50", "setting": "KM12 colon", "value": 2610, "unit": "nM"},
      {"measurement": "TGI", "setting": "KM12 colon", "value": "> 100000", "unit": "nM"},
      {"measurement": "GI50", "setting": "SR leukemia", "value": 112, "unit": "nM"},
      {"measurement": "TGI", "setting": "SR leukemia", "value": "> 100000", "unit": "nM"},
      {"measurement": "GI50", "setting": "MDA-MB-435", "value": 801, "unit": "nM"},
      {"measurement": "TGI", "setting": "MDA-MB-435", "value": 2720, "unit": "nM"},
      {"measurement": "GI50", "setting": "RPMI-8226 leukemia", "value": 289, "unit": "nM"},
      {"measurement": "GI50", "setting": "SW-620 colon", "value": 518, "unit": "nM"},
      {"measurement": "TGI", "setting": "SW-620 colon", "value": "> 100000", "unit": "nM"},
      {"measurement": "GI50", "setting": "NCI-H23 lung", "value": 249, "unit": "nM"},
      {"measurement": "TGI", "setting": "NCI-H23 lung", "value": 2810, "unit": "nM"},
      {"measurement": "GI50", "setting": "SF-295 CNS", "value": 1640, "unit": "nM"},
      {"measurement": "TGI", "setting": "SF-295 CNS", "value": "> 100000", "unit": "nM"},
      {"measurement": "GI50", "setting": "M14 melanoma", "value": 1000, "unit": "nM"},
      {"measurement": "TGI", "setting": "M14 melanoma", "value": "> 100000", "unit": "nM"},
      {"measurement": "GI50", "setting": "MOLT-4 leukemia", "value": 246, "unit": "nM"},
      {"measurement": "TGI", "setting": "MOLT-4 leukemia", "value": "> 100000", "unit": "nM"},
      {"measurement": "GI50", "setting": "HT29 colon", "value": 2760, "unit": "nM"},
      {"measurement": "TGI", "setting": "HT29 colon", "value": "> 100000", "unit": "nM"},
      {"measurement": "GI50", "setting": "DU-145 prostate", "value": 351, "unit": "nM"},
      {"measurement": "TGI", "setting": "DU-145 prostate", "value": "> 100000", "unit": "nM"},
      {"measurement": "GI50", "setting": "LOX IMVI melanoma", "value": 349, "unit": "nM"},
      {"measurement": "TGI", "setting": "LOX IMVI melanoma", "value": "> 45200", "unit": "nM"},
      {"measurement": "GI50", "setting": "UACC-257 melanoma", "value": 2130, "unit": "nM"},
      {"measurement": "TGI", "setting": "UACC-257 melanoma", "value": "> 100000", "unit": "nM"},
      {"measurement": "GI50", "setting": "HOP-92 NSCLC", "value": 596, "unit": "nM"},
      {"measurement": "TGI", "setting": "HOP-92 NSCLC", "value": "> 21800", "unit": "nM"},
      {"measurement": "GI50", "setting": "HOP-62 NSCLC", "value": 653, "unit": "nM"},
      {"measurement": "TGI", "setting": "HOP-62 NSCLC", "value": "> 95000", "unit": "nM"},
      {"measurement": "GI50", "setting": "CCRF-CEM leukemia", "value": 138, "unit": "nM"},
      {"measurement": "GI50", "setting": "UO-31 renal", "value": "> 72600", "unit": "nM"},
      {"measurement": "TGI", "setting": "UO-31 renal", "value": "> 100000", "unit": "nM"},
      {"measurement": "GI50", "setting": "SK-MEL-5 melanoma", "value": 476, "unit": "nM"},
      {"measurement": "TGI", "setting": "SK-MEL-5 melanoma", "value": 1800, "unit": "nM"},
      {"measurement": "GI50", "setting": "SN12C renal", "value": 200, "unit": "nM"},
      {"measurement": "TGI", "setting": "SN12C renal", "value": "> 100000", "unit": "nM"},
      {"measurement": "GI50", "setting": "BT-549 breast", "value": 369, "unit": "nM"},
      {"measurement": "TGI", "setting": "BT-549 breast", "value": 1900, "unit": "nM"},
      {"measurement": "GI50", "setting": "786-0 renal", "value": 1440, "unit": "nM"},
      {"measurement": "TGI", "setting": "786-0 renal", "value": "> 100000", "unit": "nM"},
      {"measurement": "GI50", "setting": "RXF 393 renal", "value": 425, "unit": "nM"},
      {"measurement": "TGI", "setting": "RXF 393 renal", "value": 5080, "unit": "nM"},
      {"measurement": "GI50", "setting": "A498 renal", "value": 29600, "unit": "nM"},
      {"measurement": "TGI", "setting": "A498 renal", "value": "> 85400", "unit": "nM"},
      {"measurement": "GI50", "setting": "T-47D breast", "value": 349, "unit": "nM"},
      {"measurement": "TGI", "setting": "T-47D breast", "value": "> 100000", "unit": "nM"},
      {"measurement": "GI50", "setting": "OVCAR-4 ovarian", "value": 4570, "unit": "nM"},
      {"measurement": "TGI", "setting": "OVCAR-4 ovarian", "value": "> 100000", "unit": "nM"},
      {"measurement": "GI50", "setting": "U251 CNS", "value": 995, "unit": "nM"}
    ]}
  ]
}
